Structures can show the parent of a compound that is named as a salt.
The compounds below were run against T1, ΔF508-CFTR (Homo sapiens, UniProt P13569, DEL508-508) (assay: Membrane potential optical (FRET/VIPR) assay, identification of potentiator compounds, NIH3T3 cells expressing ΔF508-CFTR). Settings: Table II.A-4; EC50 of certain embodiments.
T1 construct: expressed in transfected cells
T1 sequence (P13569 with tags, fused parts or gaps DEL508-508): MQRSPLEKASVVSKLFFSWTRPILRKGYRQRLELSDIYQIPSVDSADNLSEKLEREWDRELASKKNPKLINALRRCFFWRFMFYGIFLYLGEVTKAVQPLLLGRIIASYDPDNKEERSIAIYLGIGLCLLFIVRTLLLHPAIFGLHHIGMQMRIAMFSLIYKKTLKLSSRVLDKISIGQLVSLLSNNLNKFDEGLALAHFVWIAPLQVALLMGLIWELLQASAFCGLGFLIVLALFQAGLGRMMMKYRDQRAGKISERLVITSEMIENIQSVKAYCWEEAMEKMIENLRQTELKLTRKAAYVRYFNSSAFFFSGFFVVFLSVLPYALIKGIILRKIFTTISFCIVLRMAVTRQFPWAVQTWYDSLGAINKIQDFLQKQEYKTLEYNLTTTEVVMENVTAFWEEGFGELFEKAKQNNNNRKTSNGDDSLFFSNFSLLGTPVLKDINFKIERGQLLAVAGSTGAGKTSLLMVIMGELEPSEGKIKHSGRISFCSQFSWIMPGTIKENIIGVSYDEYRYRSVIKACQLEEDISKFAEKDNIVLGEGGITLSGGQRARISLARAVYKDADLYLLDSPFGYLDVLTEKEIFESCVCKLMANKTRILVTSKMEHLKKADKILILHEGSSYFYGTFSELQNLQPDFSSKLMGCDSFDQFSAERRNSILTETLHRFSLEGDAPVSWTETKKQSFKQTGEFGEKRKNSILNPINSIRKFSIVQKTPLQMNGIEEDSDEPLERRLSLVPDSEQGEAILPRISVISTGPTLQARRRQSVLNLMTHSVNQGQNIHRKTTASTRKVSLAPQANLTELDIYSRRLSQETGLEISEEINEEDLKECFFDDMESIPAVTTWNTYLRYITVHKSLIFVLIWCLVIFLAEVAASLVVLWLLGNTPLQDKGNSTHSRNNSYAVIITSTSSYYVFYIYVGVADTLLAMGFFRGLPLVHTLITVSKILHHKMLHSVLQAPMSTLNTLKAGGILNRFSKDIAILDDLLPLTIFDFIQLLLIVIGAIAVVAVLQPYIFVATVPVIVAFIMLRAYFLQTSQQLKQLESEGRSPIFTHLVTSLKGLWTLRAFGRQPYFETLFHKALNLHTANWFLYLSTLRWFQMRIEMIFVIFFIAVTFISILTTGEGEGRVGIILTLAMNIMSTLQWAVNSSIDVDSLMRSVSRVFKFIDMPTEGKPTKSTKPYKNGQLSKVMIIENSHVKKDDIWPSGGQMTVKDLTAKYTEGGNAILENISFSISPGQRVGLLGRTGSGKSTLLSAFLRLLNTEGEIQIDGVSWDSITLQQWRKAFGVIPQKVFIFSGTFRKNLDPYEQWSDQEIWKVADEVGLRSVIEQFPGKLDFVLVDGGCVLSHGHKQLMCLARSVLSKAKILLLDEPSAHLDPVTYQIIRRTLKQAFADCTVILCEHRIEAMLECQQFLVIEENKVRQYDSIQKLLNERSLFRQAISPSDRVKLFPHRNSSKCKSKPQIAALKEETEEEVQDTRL
Format: cell-based
Source text: I) Membrane Potential Optical Methods for Assaying ΔF508-CFTR Modulation Properties of Compounds
The optical membrane potential assay utilized voltage-sensitive FRET sensors described by Gonzalez and Tsien (See, Gonzalez, J. E. and R. Y. Tsien (1995) “Voltage sensing by fluorescence resonance energy transfer in single cells” Biophys J 69(4): 1272-80, and Gonzalez, J. E. and R. Y. Tsien (1997) “Improved indicators of cell membrane potential that use fluorescence resonance energy transfer” Chem Biol 4(4): 269-77) in combination with instrumentation for measuring fluorescence changes such as the Voltage/Ion Probe Reader (VIPR) (See, Gonzalez, J. E., K. Oades, et al. (1999) “Cell-based assays and instrumentation for screening ion-channel targets” Drug Discov Today 4(9): 431-439).
These voltage sensitive assays are based on the change in fluorescence resonant energy transfer (FRET) between the membrane-soluble, voltage-sensitive dye, DiSBAC2(3), and a fluorescent phospholipid, CC2-DMPE, which is attached to the outer leaflet of the plasma membrane and acts as a FRET donor. Changes in membrane potential (Vm) cause the negatively charged DiSBAC2(3) to redistribute across the plasma membrane and the amount of energy transfer from CC2-DMPE changes accordingly. The changes in fluorescence emission were monitored using VIPR™ II, which is an integrated liquid handler and fluorescent detector designed to conduct cell-based screens in 96- or 384-well microtiter plates.
To identify potentiators of ΔF508-CFTR, a double-addition HTS assay format was developed. During the first addition, a Cl^−-free medium with or without test compound was added to each well. After 22 sec, a second addition of Cl^−-free medium containing 2-10 μM forskolin was added to activate ΔF508-CFTR. The extracellular Cl^− concentration following both additions was 28 mM, which promoted Cl^− efflux in response to ΔF508-CFTR activation and the resulting membrane depolarization was optically monitored using the FRET-based voltage-sensor dyes. Solutions
Bath Solution #1: (in mM) NaCl 160, KCl 4.5, CaCl2 2, MgCl2 1, HEPES 10, pH 7.4 with NaOH. Chloride-free bath solution: Chloride salts in Bath Solution #1 are substituted with gluconate salts. CC2-DMPE: Prepared as a 10 mM stock solution in DMSO and stored at −20° C. DiSBAC2(3): Prepared as a 10 mM stock in DMSO and stored at −20° C.
NIH3T3 mouse fibroblasts stably expressing ΔF508-CFTR are used for optical measurements of membrane potential. The cells are maintained at 37° C. in 5% CO2 and 90% humidity in Dulbecco's modified Eagle's medium supplemented with 2 mM glutamine, 10% fetal bovine serum, 1× NEAA, β-ME, 1× pen/strep, and 25 mM HEPES in 175 cm^2 culture flasks. […]
CC(C)(C)OC(=O)NCC(C)(C)c1ccc(NC(=O)c2c[nH]c3ccccc3c2=O)cc1 [compound 88, [2-methyl-2-[4-[(4-oxo-1H-quinolin-3-yl)carbonylamino]phenyl]-propyl]aminoformic acid tert-butyl ester] gave an EC50 of under 10 µM. O=C(Nc1ccccc1Oc1ccccc1)c1c[nH]c2ccccc2c1=O [compound 413, 4-oxo-N-(2-phenoxyphenyl)-1H-quinoline-3-carboxamide] showed an EC50 of 10 to 25 µM. In the case of Nc1cccc(NC(=O)c2c[nH]c3ccccc3c2=O)c1 [compound 431, N-(3-aminophenyl)-4-oxo-1H-quinoline-3-carboxamide], the EC50 is reported as under 10 µM. Work on O=C(Nc1ccc(N2CCOCC2)cc1)c1c[nH]c2ccccc2c1=O [compound 457, N-(4-morpholinophenyl)-4-oxo-1H-quinoline-3-carboxamide] yielded an EC50 of under 10 µM.

What follows are compounds tested against T2, epithelial sodium channel (ENaC) (Homo sapiens, UniProt P37088+P51168+P51170) (assay: Short circuit current (ISC) measurements in human bronchial epithelial cells, inhibition of amiloride-sensitive ISC). Settings: inhibition of the amiloride-sensitive ISC, HBECs at air-liquid interface, compound added to apical chamber.
T2 construct: host or cells: primary human bronchial epithelial cells (HBECs), air-liquid interface culture
T2 sequence (P37088 1-669): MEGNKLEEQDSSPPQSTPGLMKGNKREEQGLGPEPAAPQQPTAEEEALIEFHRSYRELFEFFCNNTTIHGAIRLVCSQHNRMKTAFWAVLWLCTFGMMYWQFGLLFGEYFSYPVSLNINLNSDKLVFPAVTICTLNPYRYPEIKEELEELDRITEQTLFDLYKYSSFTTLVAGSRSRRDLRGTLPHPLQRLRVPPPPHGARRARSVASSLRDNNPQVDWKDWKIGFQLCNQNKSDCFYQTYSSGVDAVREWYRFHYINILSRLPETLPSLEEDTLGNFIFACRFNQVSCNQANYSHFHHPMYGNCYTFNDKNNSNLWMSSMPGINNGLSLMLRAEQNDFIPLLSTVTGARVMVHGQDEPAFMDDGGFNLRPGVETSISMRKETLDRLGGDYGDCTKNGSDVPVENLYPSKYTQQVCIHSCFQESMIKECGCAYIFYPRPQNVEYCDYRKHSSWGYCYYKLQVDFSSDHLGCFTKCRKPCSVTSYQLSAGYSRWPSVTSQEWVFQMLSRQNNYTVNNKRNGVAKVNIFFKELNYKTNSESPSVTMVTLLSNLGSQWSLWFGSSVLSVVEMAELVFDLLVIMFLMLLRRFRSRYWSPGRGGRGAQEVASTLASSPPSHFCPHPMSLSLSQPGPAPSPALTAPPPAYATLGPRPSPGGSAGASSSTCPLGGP
T2 sequence (P51168 1-640): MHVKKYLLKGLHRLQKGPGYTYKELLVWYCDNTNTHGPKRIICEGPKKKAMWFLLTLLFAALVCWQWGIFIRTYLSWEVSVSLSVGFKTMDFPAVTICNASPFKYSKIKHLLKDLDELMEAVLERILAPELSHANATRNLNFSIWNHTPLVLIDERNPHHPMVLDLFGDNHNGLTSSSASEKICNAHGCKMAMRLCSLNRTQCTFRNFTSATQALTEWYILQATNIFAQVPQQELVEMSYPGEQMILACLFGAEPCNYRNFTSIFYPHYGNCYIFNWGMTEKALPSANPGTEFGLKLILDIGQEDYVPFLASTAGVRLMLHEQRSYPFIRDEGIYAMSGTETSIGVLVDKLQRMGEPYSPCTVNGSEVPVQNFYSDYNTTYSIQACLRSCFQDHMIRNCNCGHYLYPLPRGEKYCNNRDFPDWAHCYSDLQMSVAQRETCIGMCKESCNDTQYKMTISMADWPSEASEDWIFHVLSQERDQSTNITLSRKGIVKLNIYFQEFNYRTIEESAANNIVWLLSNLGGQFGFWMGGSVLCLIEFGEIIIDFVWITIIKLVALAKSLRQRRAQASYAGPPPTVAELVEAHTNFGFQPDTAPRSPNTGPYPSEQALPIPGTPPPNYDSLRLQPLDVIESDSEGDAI
T2 sequence (P51170 1-649): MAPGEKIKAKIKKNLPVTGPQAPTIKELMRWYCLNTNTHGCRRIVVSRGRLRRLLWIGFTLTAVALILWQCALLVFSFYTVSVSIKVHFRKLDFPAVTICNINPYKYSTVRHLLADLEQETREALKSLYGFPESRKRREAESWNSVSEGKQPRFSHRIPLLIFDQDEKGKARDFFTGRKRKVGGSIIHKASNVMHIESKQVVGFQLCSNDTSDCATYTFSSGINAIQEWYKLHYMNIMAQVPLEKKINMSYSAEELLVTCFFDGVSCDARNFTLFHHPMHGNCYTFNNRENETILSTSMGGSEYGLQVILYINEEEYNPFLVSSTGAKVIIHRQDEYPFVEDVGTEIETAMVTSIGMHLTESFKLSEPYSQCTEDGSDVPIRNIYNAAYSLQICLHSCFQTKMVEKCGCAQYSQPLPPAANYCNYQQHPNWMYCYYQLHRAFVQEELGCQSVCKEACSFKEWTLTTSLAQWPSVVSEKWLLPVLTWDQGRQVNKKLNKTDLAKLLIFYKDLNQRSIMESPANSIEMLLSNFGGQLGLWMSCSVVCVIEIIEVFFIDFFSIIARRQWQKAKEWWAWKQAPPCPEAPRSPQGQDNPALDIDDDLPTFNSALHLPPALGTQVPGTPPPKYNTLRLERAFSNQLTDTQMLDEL
Format: cell-based
Procedure: Compounds of Formula E and their pharmaceutically acceptable salts, hereinafter referred to alternatively as “illustrative ENaC inhibitors of the invention”, are useful as pharmaceuticals. In particular, the compounds have good ENaC blocker activity and may be tested in the following assays.
Human Bronchial Epithelial cells (HBECs) (Cambrex) were cultured under air-liquid interface conditions to provide a well differentiated mucociliary phenotype.
HBECs were cultured using a modification of the method described by Gray and colleagues (Gray et al., 1996). […]
Snapwell inserts were mounted in Vertical Diffusion Chambers (Costar) and were bathed with continuously gassed Ringer solution (5% CO2 in O2; pH 7.4) maintained at 37° C. containing (in mM): 120 NaCl, 25 NaHCO3, 3.3 KH2PO4, 0.8 K2HPO4, 1.2 CaCl2, 1.2 MgCl2, and 10 glucose. […] RT was measured by applying a 1- or 2-mV pulse at 30-s intervals and calculating RT by Ohm's law. Data were recorded using a PowerLab workstation (ADInstruments).
Test compounds were prepared as a 10 mM stock solution in DMSO (95%). […] At the completion of the concentration-response experiment, amiloride (10 μM) was added into the apical chamber to enable the total amiloride-sensitive current to be measured. […]
Results are expressed as the mean % inhibition of the amiloride-sensitive ISC. […]
For CCCC1N/C(=N/C(=O)c2nc(Cl)c(N)nc2N)NC1CCCc1ccc(OCC(O)CO)cc1 (stereo in doubt) [Example 29, (E)-3,5-diamino-6-chloro-N-(4-(3-(4-((S)-2,3-dihydroxypropoxy)phenyl)propyl)-5-propylimidazolidin-2-ylidene)pyrazine-2-carboxamide hydrochloride], the IC50 was 5 nM. Cc1oc(-c2ccccc2)nc1COc1ccc(S(=O)(=O)N2CCC3(CC2)CN/C(=N\C(=O)c2nc(Cl)c(N)nc2N)N3)cc1 [Example 238, 3,5-Diamino-6-chloro-pyrazine-2-carboxylic acid [8-[4-(5-methyl-2-phenyl-oxazol-4-ylmethoxy)-benzenesulfonyl]-1,3,8-triaza-spiro[4.5]dec-(2E)-ylidene]-amide] showed an IC50 of 11.9 nM.
